# Measured values: patent publication US20060211698A1, “Bicyclic heteroaryl derivatives for treating viruses” (Genelabs, Inc., priority 2005, published 2006)
# Biological target: T1, HCV-NS5b (Hepatitis C virus genotype 1b, UniProt Q9WMX2)
# T1 construct: The cloned fragment was missing the C terminus 21 amino acid residues; (His)6 (C); made in house; host or cells: XL-1 cells (E. coli)
# Assay: HCV-NS5b Enzyme Assay
# Format: biochemical
# Conditions: 1 μM test compound; incorporation of [3H]-UTP, 37° C., 2 hours
# Procedure, shortened: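 The NS5B construct lacks its C-terminal 21 residues, carries a C-terminal His6 tag and was expressed in E. coli. [^3H]-UTP incorporation on a biotinylated HCV heteropolymeric template (10 ng/μL) with 10 μM each NTP, pH 7.5, 5 mM MgCl2 and 5% DMSO ran 2 h at 37° C and was read by SPA scintillation. IC50s came from 10-point 2-fold series starting at 50 or 2 μM.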
% inhibition @ 1 μM [%],inhibition at 1 µM [%],SMILES
94.5,,"O=C(O)c1ccc2c(C3CCCCC3)c(-c3ccc4nc(-c5cccnc5)ccc4c3)n(CC(=O)N3CCOCC3)c2c1 [Compound 226, 1-[N-morpholinocarbonylmethyl]-2-[2-pyrid-3-ylquinolin-6-yl]-3-cyclohexyl-1H-indole-6-carboxylic acid]"
,92.2,"Cc1cc(-c2ccc3cc(-c4c(C5CCCCC5)c5ccc(C(=O)O)cc5n4CC(=O)N4CCOCC4)ccc3n2)c(C)o1 [Compound 230, 3-Cyclohexyl-2-[2-(2,5-dimethyl-furan-3-yl)-quinolin-6-yl]-1-(2-morpholin-4-yl-2-oxo-ethyl)-1H-indole-6-carboxylic acid]"
,87.8,"Cc1nc(C)c(-c2ccc3cc(-c4c(C5CCCCC5)c5ccc(C(=O)O)cc5n4CC(=O)N4CCOCC4)cc(Br)c3n2)s1 [Compound 282, 2-[8-Bromo-2-(2,4-dimethyl-thiazol-5-yl)-quinolin-6-yl]-3-cyclohexyl-1-(2-morpholin-4-yl-2-oxo-ethyl)-1H-indole-6-carboxylic acid]"
,96.8,"Cc1nc(C)c(-c2ccc3cc(-c4c(C5CCCCC5)c5ccc(C(=O)O)cc5n4CC(=O)N(C)C)ccc3n2)s1 [Compound 212, 1-[N,N-dimethylaminocarbonyl-methyl]-2-[2-(2,4-dimethylthiazol-5-yl)-quinolin-6-yl]-3-cyclohexyl-1H-indole-6-carboxylic acid]"
92.3,,"O=C(O)c1ccc2c(C3CCCCC3)c(-c3ccc4nc(-c5ccco5)ccc4c3)n(CC(=O)N3CCOCC3)c2c1 [Compound 222, 1-[N-morpholinocarbonylmethyl]-2-(2-furan-2-yl-quinolin-6-yl)-3-cyclohexyl-1H-indole-6-carboxylic acid]"
,97.1,"O=C(O)c1ccc2c(C3CCCCC3)c(-c3ccc4nc(-c5ccc(F)c(F)c5)ccc4c3)n(CC(=O)N3CCOCC3)c2c1 [Compound 266, 3-Cyclohexyl-2-[2-(3,4-difluoro-phenyl)-quinolin-6-yl]-1-(2-morpholin-4-yl-2-oxo-ethyl)-1H-indole-6-carboxylic acid]"
,97.4,"O=C(O)c1ccc2c(C3CCCCC3)c(-c3ccc4nc(-c5ccccc5F)ccc4c3)n(CC(=O)N3CCOCC3)c2c1 [Compound 255, 3-Cyclohexyl-2-[2-(2-fluoro-phenyl)-quinolin-6-yl]-1-(2-morpholin-4-yl-2-oxo-ethyl)-1H-indole-6-carboxylic acid]"
,96.7,"Cc1noc(C)c1-c1ccc(-c2c(C3CCCCC3)c3ccc(C(=O)O)cc3n2CC(=O)N2CCOCC2)cc1 [Compound 317, 3-Cyclohexyl-2-[4-(3,5-dimethyl-isoxazol-4-yl)-phenyl]-1-(2-morpholin-4-yl-2-oxo-ethyl)-1H-indole-6-carboxylic acid]"
,97.4,"Cc1cc(-c2ccc3cc(-c4c(C5CCCCC5)c5ccc(C(=O)O)cc5n4CC(=O)N4CCOCC4)ccc3n2)c(C)s1 [Compound 258, 3-Cyclohexyl-2-[2-(2,5-dimethyl-thiophen-3-yl)-quinolin-6-yl]-1-(2-morpholin-4-yl-2-oxo-ethyl)-1H-indole-6-carboxylic acid]"
,95.5,"Cc1ccc(-c2ccc3cc(-c4c(C5CCCCC5)c5ccc(C(=O)O)cc5n4CC(=O)N4CCOCC4)ccc3n2)s1 [Compound 235, 3-Cyclohexyl-2-[2-(5-methyl-thiophen-2-yl)-quinolin-6-yl]-1-(2-morpholin-4-yl-2-oxo-ethyl)-1H-indole-6-carboxylic acid]"
96.0,,"O=C(O)c1ccc2c(C3CCCCC3)c(-c3ccc4nc(-c5ccc[nH]5)ccc4c3)n(CC(=O)N3CCOCC3)c2c1 [Compound 219, 1-[N-morpholinocarbonylmethyl]-2-[2-(pyrrol-2-yl)-quinolin-6-yl]-3-cyclohexyl-1H-indole-6-carboxylic acid]"
,99.5,"Cc1cccc(-c2ccc(-c3c(C4CCCCC4)c4ccc(C(=O)O)cc4n3CC(=O)N3CCOCC3)cc2)c1 [Compound 312, 3-Cyclohexyl-2-(3′-methyl-biphenyl-4-yl)-1-(2-morpholin-4-yl-2-oxo-ethyl)-1H-indole-6-carboxylic acid]"
,95,"COc1ccc(F)c(-c2ccc3cc(-c4c(C5CCCCC5)c5ccc(C(=O)O)cc5n4CC(=O)N4CCOCC4)ccc3n2)c1 [Compound 270, 3-Cyclohexyl-2-[2-(2-fluoro-5-methoxy-phenyl)-quinolin-6-yl]-1-(2-morpholin-4-yl-2-oxo-ethyl)-1H-indole-6-carboxylic acid]"
,98.1,"O=C(O)c1ccc2c(C3CCCCC3)c(-c3ccc(-c4ccc(Cl)s4)cc3)n(CC(=O)N3CCOCC3)c2c1 [Compound 318, 2-[4-(5-Chloro-thiophen-2-yl)-phenyl]-3-cyclohexyl-1-(2-morpholin-4-yl-2-oxo-ethyl)-1H-indole-6-carboxylic acid]"
,99,"COc1ccc(-c2ccc(Cl)cc2)c(-c2ccc3cc(-c4c(C5CCCCC5)c5ccc(C(=O)O)cc5n4CC(=O)N(C)C)ccc3n2)c1 [Compound 206, 1-[N,N-dimethylaminocarbonyl-methyl]-2-[2-(4′-chloro-4-methoxy-biphen-2-yl)-quinolin-6-yl]-3-cyclohexyl-1H-indole-6carboxylic acid]"
,99.4,"COc1ccc(-c2ccc3cc(-c4c(C5CCCCC5)c5ccc(C(=O)O)cc5n4CC(=O)N4CCOCC4)ccc3n2)cc1F [Compound 273, 3-Cyclohexyl-2-[2-(3-fluoro-4-methoxy-phenyl)-quinolin-6-yl]-1-(2-morpholin-4-yl-2-oxo-ethyl)-1H-indole-6-carboxylic acid]"
,86.9,"Cc1nc(C)c(-c2ccc3cc(-c4[nH]c5c(C)c(C(=O)O)ccc5c4C4CCCCC4)ccc3n2)s1 [Compound 334, 3-Cyclohexyl-2-[2-(2,4-dimethyl-thiazol-5-yl)-quinolin-6-yl]-7-methyl-1H-indole-6-carboxylic acid]"
,84.1,"Cc1nc(C)c(-c2nc3ccc(-c4c(C5CCCCC5)c5ccc(C(=O)O)cc5n4CC(=O)N4CCOCC4)cc3[nH]2)s1 [Compound 320, 3-Cyclohexyl-2-[2-(2,4-dimethyl-thiazol-5-yl)-3H-benzoimidazol-5-yl]-1-(2-morpholin-4-yl-2-oxo-ethyl)-1H-indole-6-carboxylic acid]"
,96,"Cc1nc(C)c(-c2ccc3cc(-c4c(C5CCCCC5)c5ccc(C(=O)O)cc5n4CC(=O)N4CCOCC4)ccc3n2)o1 [Compound 260, 3-Cyclohexyl-2-[2-(2,4-dimethyl-oxazol-5-yl)-quinolin-6-yl]-1-(2-morpholin-4-yl-2-oxo-ethyl)-1H-indole-6-carboxylic acid]"
,97.4,"Cc1csc(-c2ccc3cc(-c4c(C5CCCCC5)c5ccc(C(=O)O)cc5n4CC(=O)N4CCOCC4)ccc3n2)c1 [Compound 234, 3-Cyclohexyl-2-[2-(4-methyl-thiophen-2-yl)-quinolin-6-yl]-1-(2-morpholin-4-yl-2-oxo-ethyl)-1H-indole-6-carboxylic acid]"
,95.7,"Cc1nc(C)c(-c2ccc3cc(-c4c(C5CCCCC5)c5ccc(C(=O)O)cc5n4Cc4ccncc4)ccc3n2)s1 [Compound 289, 3-Cyclohexyl-2-[2-(2,4-dimethyl-thiazol-5-yl)-quinolin-6-yl]-1-pyridin-4-ylmethyl-1H-indole-6-carboxylic acid]"
,99.6,"Cc1ccccc1-c1ccc(-c2c(C3CCCCC3)c3ccc(C(=O)O)cc3n2CC(=O)N2CCOCC2)cc1 [Compound 313, 3-Cyclohexyl-2-(2′-methyl-biphenyl-4-yl)-1-(2-morpholin-4-yl-2-oxo-ethyl)-1H-indole-6-carboxylic acid]"
